Measurements taken from ChEMBL document CHEMBL1143496, “Privileged structure based ligands for melanocortin receptors--substituted benzylic piperazine derivatives” (Bioorg Med Chem Lett, 2005).

These molecules were tested against Melanocortin receptor 4 (Homo sapiens, UniProt P32245) (assay: Inhibition of [125I]-NDP MSH binding to human Melanocortin 4 receptor).
Melanocortin receptor 4, sequence (P32245 whole entry): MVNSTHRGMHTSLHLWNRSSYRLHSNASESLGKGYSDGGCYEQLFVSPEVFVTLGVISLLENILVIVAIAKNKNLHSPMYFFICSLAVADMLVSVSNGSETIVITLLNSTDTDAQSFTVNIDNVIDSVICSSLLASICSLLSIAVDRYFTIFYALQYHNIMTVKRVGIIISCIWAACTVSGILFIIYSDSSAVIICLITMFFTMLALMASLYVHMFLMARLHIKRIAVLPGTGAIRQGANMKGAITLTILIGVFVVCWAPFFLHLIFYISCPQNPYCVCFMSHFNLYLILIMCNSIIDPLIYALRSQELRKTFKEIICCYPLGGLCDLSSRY
In the case of CCN(CC)CC(CCc1ccccc1)N1CCN(C)CC1 (configuration not stated), the Ki is reported as 130 nM.
Molecule CC(=O)NCC(c1ccccc1F)N1CCN(C)CC1 (configuration not stated) has a Ki of 467 nM.
CCN(CC)CC(c1ccc(F)cc1F)N1CCN(C)CC1 (configuration not stated) gave a Ki of 100 nM.
CCN(CC)CC(c1ccccc1OC)N1CCN(C)CC1 (configuration not stated) gave a Ki of 190 nM.
Molecule CCN(CC)CC(c1ccc(C(F)(F)F)cc1)N1CCN(C)CC1 (configuration not stated) has a Ki of 200 nM.
Molecule CCN(CC)C[C@H](c1ccccc1)N1CCN(C)CC1 has a Ki of 190 nM.
With CCN(CC)CC(CCCc1ccccc1)N1CCN(C)CC1 (configuration not stated) the Ki was 110 nM.
Work on CCN(CC)C[C@@H](c1ccccc1)N1CCN(C)CC1 yielded a Ki of 50 nM.
CCN(CC(c1ccccc1F)N1CCN(C)CC1)S(C)(=O)=O (configuration not stated) showed a Ki of 157 nM.
Molecule CCN(CC)CC(c1ccccc1C(F)(F)F)N1CCN(C)CC1 (configuration not stated) has a Ki of 40 nM.
Molecule CCN(CC)CC(c1ccccc1F)N1CCN(C)CC1 (configuration not stated) has a Ki of 20 nM.
For CCN(CC)CC(c1c(F)cccc1F)N1CCN(C)CC1 (configuration not stated), the Ki was 150 nM.
With CCN(CC)Cc1ccccc1N1CCN(C(=O)[C@@H](Cc2ccc(Cl)cc2)NC(=O)[C@H]2Cc3ccccc3CN2)CC1 the Ki was 14 nM.
In the case of CC(c1ccccc1)N1CCN(C)CC1 (configuration not stated), the Ki is reported as 700 nM.
CN1CCN(C(CNS(C)(=O)=O)c2ccccc2F)CC1 (configuration not stated) was tested, and the Ki was 472 nM.
CCN(CC)CC(c1ccccc1C)N1CCN(C)CC1 (configuration not stated) showed a Ki of 70 nM.
COC(=O)NCC(c1ccccc1F)N1CCN(C)CC1 (configuration not stated) showed a Ki of 483 nM.
CCN(CC)C[C@H](c1ccccc1F)N1CCN(C)CC1 gave a Ki of 14 nM.
CCN(CC(c1ccccc1F)N1CCN(C)CC1)C(=O)OC (configuration not stated) gave a Ki of 261 nM.
With CCN(CC)CC(c1ccccc1Cl)N1CCN(C)CC1 (configuration not stated) the Ki was 70 nM.
For CCN(CC(c1ccccc1F)N1CCN(C)CC1)C(C)=O (configuration not stated), the Ki was 106 nM.
For CCN(CC)C(=O)C(c1ccccc1F)N1CCN(C)CC1 (configuration not stated), the Ki was 125 nM.
Molecule CCN(CC)CC(Cc1ccccc1)N1CCN(C)CC1 (configuration not stated) has a Ki of 40 nM.
CCN(CC)CC(c1ccccc1)N1CCN(C)CC1 (configuration not stated) showed a Ki of 90 nM.
CN1CCN(Cc2ccccc2)CC1 gave a Ki of 2000 nM.
CCN(CC)CC(c1cccc(C(F)(F)F)c1)N1CCN(C)CC1 (configuration not stated) gave a Ki of 150 nM.
CCN(CC)C[C@@H](c1ccccc1F)N1CCN(C)CC1 gave a Ki of 111 nM.
